Experimental data reported in US7196192B2, “28-epirapalogs” (Ariad Gene Therapeutics, Inc., priority 1999, dated 2007).
Where two headings read alike, the source gives them in different places.

Key:
murine splenocyte = murine splenocyte assay for immunosuppressive activity; format: cell-based; conditions: read-out: Splenocyte IC50
Method: 3. Conventional murine splenocyte assay for immunosuppressive activity.
(§1) A diverse group of C7-modified 28-epirapalogs were prepared as described in Example 4.

[1] = target: T1, transcriptional switch components containing FKBP and 2098L mutant FRB domains (Homo sapiens, UniProt P42345+P62942); assay: transcription assay in engineered HD1080 cells expressing SEAP (txn 2098L); format: cell-based; conditions: for TXN 2098L peak relative to rapamycin peak: superscript mark on EC50 cell
T1 construct: transcriptional switchcomponents containing FKBP and 2098L mutant FRB domains, respectively; fused on or other part: The two switch components are separate chimeric proteins; Neither is given for this cell line
T1 sequence (P62942 2-108 limits assumed, stated change not applied, other chains not shown): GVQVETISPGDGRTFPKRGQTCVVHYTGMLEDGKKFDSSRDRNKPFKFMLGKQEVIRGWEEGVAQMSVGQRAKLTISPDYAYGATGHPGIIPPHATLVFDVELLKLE
Description: The ability of the rapalogs to multimerize chimeric proteins may be measured in cell-based assays by measuring the occurrence of an event triggered by such multimerization. For instance, one may use cells containing and capable of expressing DNA encoding a first chimeric protein comprising one or more FKBP-domains and one or more effector domains as well as DNA encoding a second chimeric protein containing an FRB domain and one or more effector domains capable, upon multimerization, of actuating a biological response. We prefer to use cells which further contain a reporter gene under the transcriptional control of a regulatory element (i.e., promoter) which is responsive to the multimerization of the chimeric proteins. The design and preparation of illustrative components and their use in so engineered cells is described in WO99/36553 and WO96/41865 and the other international patent applications referred to in this and the foregoing section. (See also W099/10510 for additional guidance on the design, assembly and delivery of nucleic acids to render cells and animals responsive to rapalogs of interest and for additional guidance on applications of such systems.) The cells are grown or maintained in culture. A rapalog is added to the culture medium and after a suitable incubation period (to permit gene expression and secretion, e.g. several hours or overnight) the presence of the reporter gene product is measured. Positive results, i.e., multimerization, correlates with transcription of the reporter gene as observed by the appearance of the reporter gene product. The reporter gene product may be a conveniently detectable protein (e.g. by ELISA) or may catalyze the production of a conveniently detectable product (e.g. colored). Materials and methods for producing appropriate cell lines for conducting such assays are disclosed in the international patent applications cited above in this section.
2. EC50 values of the various compounds was measured in a transcription assay using genetically engineered HD1080 cells which constitutively express transcriptional switch components containing FKBP and 2098L mutant FRB domains, respectively and which regulatably express secreted alkaline phosphatase (SEAP) in the presence of a compound which multimerizes the switch components. The assay is a literature assay. See WO 99/36553, e.g. Example 12, pages 120–121 (& FIG. 2D) […]

FKBP = FKBP (Homo sapiens, UniProt P62942); assay: FKBP competitive binding assay based on fluorescence polarization (FP); conditions: competitive FP binding
Chain of FKBP (P62942 whole entry): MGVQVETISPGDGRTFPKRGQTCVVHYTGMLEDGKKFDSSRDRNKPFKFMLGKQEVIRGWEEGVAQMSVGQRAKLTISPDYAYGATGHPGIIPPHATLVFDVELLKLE
Method: A Competitive Binding FP Assay is described in detail in WO99/36553 and WO96/41865. That assay permits the in vitro measurement of an IC50 value for a given compound which reflects its ability to bind to an FKBP-protein in competition with a labeled FKBP ligand, such as, for example, FK506.
as §1

[2] = Mus musculus, Splenocyte, mouse splenocyte assay, methods of Example 2.5
[3] = read-out: TXN 2098L EC50, cellular transcription assay, methods of Example 2.5
[4] = FKBP IC50 (nM), methods of Example 2.5
[5] = mouse splenocyte assay, methods of Example 2.5
[6] = cellular transcription assay, methods of Example 2.5, read-out: TXN 2098L EC50
[7] = methods of Example 2.5, read-out: FKBP IC50
[8] = Mus musculus, Splenocyte, murine splenocyte assay, immunosuppressive activity
[9] = HD1080 cells, FKBP and 2098L mutant FRB switch, SEAP reporter, read-out: txn 2098L EC50
[10] = fluorescein-labelled FK506 probe (AP1491), read-out: FKBP binding IC50

| SMILES | IC50 (murine splenocyte; [2]) | TXN 2098L peak relative to rapamycin peak [1] | IC50 (murine splenocyte; [5]) | EC50 [1, 6] | IC50 (FKBP; [7]) | also measured |
| --- | --- | --- | --- | --- | --- | --- |
| CCN([C@H]1C[C@@H]2CC[C@@H](C)[C@@](O)(O2)C(=O)C(=O)N2CCCC[C@H]2C(=O)O[C@H]([C@H](C)C[C@@H]2CC[C@@H](O)[C@H](OC)C2)CC(=O)[C@H](C)/C=C(\C)[C@H](O)[C@@H](OC)C(=O)[C@H](C)C[C@H](C)/C=C/C=C/C=C/1C)S(C)(=O)=O [28-epi-7S-N-Et-methanesulfonamide] | 1360 nM | (+) (peak was >125% rapamycin peak) |  |  |  | EC50 [1, 3]: 8 nM; IC50 (FKBP; [4]): 31 nM |
| CO[C@@H]1C[C@H](C[C@@H](C)[C@@H]2CC(=O)[C@H](C)/C=C(\C)[C@H](O)[C@@H](OC)C(=O)[C@H](C)C[C@H](C)/C=C/C=C/C=C(\C)[C@@H](N(C)C(=O)OCc3ccccc3)C[C@@H]3CC[C@@H](C)[C@@](O)(O3)C(=O)C(=O)N3CCCC[C@H]3C(=O)O2)CC[C@H]1O [28-epi-7S-N-Me-benzylcarbamate] |  |  | 158 nM | 9 nM | 40 nM |  |
| CO[C@@H]1C[C@H](C[C@@H](C)[C@@H]2CC(=O)[C@H](C)/C=C(\C)[C@H](O)[C@@H](OC)C(=O)[C@H](C)C[C@H](C)/C=C/C=C/C=C(\C)[C@@H](N(C)S(C)(=O)=O)C[C@@H]3CC[C@@H](C)[C@@](O)(O3)C(=O)C(=O)N3CCCC[C@H]3C(=O)O2)CC[C@H]1O [28-epi-7S-N-Me-methanesulfonamide] | 140 nM | (+) (peak was >125% rapamycin peak) |  | 27 nM | 21 nM |  |
| CO[C@@H]1C[C@H](C[C@@H](C)[C@@H]2CC(=O)[C@H](C)/C=C(\C)[C@H](O)[C@@H](OC)C(=O)[C@H](C)C[C@H](C)/C=C/C=C/C=C(\C)[C@@H](N(C)C(=O)Oc3ccc(C)cc3)C[C@@H]3CC[C@@H](C)[C@@](O)(O3)C(=O)C(=O)N3CCCC[C@H]3C(=O)O2)CC[C@H]1O [28-epi-7S-N-Me-p-tolylcarbamate] |  |  | 50 nM | 25 nM | 54 nM |  |
| C=CCO[C@H]1C[C@@H]2CC[C@@H](C)[C@@](O)(O2)C(=O)C(=O)N2CCCC[C@H]2C(=O)O[C@H]([C@H](C)C[C@@H]2CC[C@@H](O)[C@H](OC)C2)CC(=O)[C@H](C)/C=C(\C)[C@H](O)[C@@H](OC)C(=O)[C@H](C)C[C@H](C)/C=C/C=C/C=C/1C [28-epi-7S-allyloxy] | 1800 nM |  |  |  |  | EC50 [1, 3]: 8 nM; IC50 (FKBP; [4]): 18 nM |
| CO[C@@H]1C[C@H](C[C@@H](C)[C@@H]2CC(=O)[C@H](C)/C=C(\C)[C@H](O)[C@@H](OC)C(=O)[C@H](C)C[C@H](C)/C=C/C=C/C=C(\C)[C@@H](NC(=O)OCc3ccccc3)C[C@@H]3CC[C@@H](C)[C@@](O)(O3)C(=O)C(=O)N3CCCC[C@H]3C(=O)O2)CC[C@H]1O [28-epi-7S-benzylcarbamate] | 3450 nM |  |  | 15 nM | 40 nM |  |
| CCCCS(=O)(=O)N[C@H]1C[C@@H]2CC[C@@H](C)[C@@](O)(O2)C(=O)C(=O)N2CCCC[C@H]2C(=O)O[C@H]([C@H](C)C[C@@H]2CC[C@@H](O)[C@H](OC)C2)CC(=O)[C@H](C)/C=C(\C)[C@H](O)[C@@H](OC)C(=O)[C@H](C)C[C@H](C)/C=C/C=C/C=C/1C [28-epi-7S-butanesulfonamide] | 152 nM | (+) (peak was >125% rapamycin peak) |  | 11 nM | 9.2 nM |  |
| COc1ccc([C@H]2C[C@@H]3CC[C@@H](C)[C@@](O)(O3)C(=O)C(=O)N3CCCC[C@H]3C(=O)O[C@H]([C@H](C)C[C@@H]3CC[C@@H](O)[C@H](OC)C3)CC(=O)[C@H](C)/C=C(\C)[C@H](O)[C@@H](OC)C(=O)[C@H](C)C[C@H](C)/C=C/C=C/C=C/2C)c(OC)c1 [28-epi-7S-dimethoxyphenyl] | 598 to 1060 nM |  |  | 50 nM | 31 nM |  |
| COC1CC(CC(C)C2CC(=O)C(C)C=C(C)C(O)C(OC)C(=O)C(C)CC(C)C=CC=CC=C(C)C(NS(=O)(=O)N(C)C)CC3CCC(C)C(O)(O3)C(=O)C(=O)N3CCCCC3C(=O)O2)CCC1O (stereo not drawn) [28-epi-7S-dimethylsulfamide] |  | (+) (peak was >125% rapamycin peak) | 879 nM | 20 nM | 13 nM |  |
| CCOC(=O)N[C@H]1C[C@@H]2CC[C@@H](C)[C@@](O)(O2)C(=O)C(=O)N2CCCC[C@H]2C(=O)O[C@H]([C@H](C)C[C@@H]2CC[C@@H](O)[C@H](OC)C2)CC(=O)[C@H](C)/C=C(\C)[C@H](O)[C@@H](OC)C(=O)[C@H](C)C[C@H](C)/C=C/C=C/C=C/1C [28-epi-7S-ethylcarbamate] | > 5000 nM |  |  |  |  | EC50 [1, 3]: 10 nM; IC50 (FKBP; [4]): 13 nM |
| CO[C@@H]1C[C@H](C[C@@H](C)[C@@H]2CC(=O)[C@H](C)/C=C(\C)[C@H](O)[C@@H](OC)C(=O)[C@H](C)C[C@H](C)/C=C/C=C/C=C(\C)[C@@H](NS(C)(=O)=O)C[C@@H]3CC[C@@H](C)[C@@](O)(O3)C(=O)C(=O)N3CCCC[C@H]3C(=O)O2)CC[C@H]1O [28-epi-7S-methanesulfonamide] | 7 nM |  |  | 24 nM | 16 nM |  |
| CO[C@@H]1C[C@H](C[C@@H](C)[C@@H]2CC(=O)[C@H](C)/C=C(\C)[C@H](O)[C@@H](OC)C(=O)[C@H](C)C[C@H](C)/C=C/C=C/C=C(\C)[C@@H](NS(=O)(=O)N(C)c3ccccc3)C[C@@H]3CC[C@@H](C)[C@@](O)(O3)C(=O)C(=O)N3CCCC[C@H]3C(=O)O2)CC[C@H]1O [28-epi-7S-methylphenylsulfamide] |  |  | 564 nM | 28 nM | 11 nM |  |
| COC1CC(CC(C)C2CC(=O)C(C)C=C(C)C(O)C(OC)C(=O)C(C)CC(C)C=CC=CC=C(C)C(c3ccc(C)s3)CC3CCC(C)C(O)(O3)C(=O)C(=O)N3CCCCC3C(=O)O2)CCC1O (stereo not drawn) [28-epi-7S-methylthiophene] |  |  | 170 to 242 nM | 25 nM | 86 nM |  |
| COC1CC(CC(C)C2CC(=O)C(C)C=C(C)C(O)C(OC)C(=O)C(C)CC(C)C=CC=CC=C(C)C(NC(=O)Oc3ccccc3)CC3CCC(C)C(O)(O3)C(=O)C(=O)N3CCCCC3C(=O)O2)CCC1O (stereo not drawn) [28-epi-7S-phenylcarbamate] |  | (+) (peak was >125% rapamycin peak) | > 5000 nM | 14 nM | 18 nM |  |
| CO[C@@H]1C[C@H](C[C@@H](C)[C@@H]2CC(=O)[C@H](C)/C=C(\C)[C@H](O)[C@@H](OC)C(=O)[C@H](C)C[C@H](C)/C=C/C=C/C=C(\C)[C@@H](Oc3ccccc3)C[C@@H]3CC[C@@H](C)[C@@](O)(O3)C(=O)C(=O)N3CCCC[C@H]3C(=O)O2)CC[C@H]1O [28-epi-7S-phenyloxy] | 478 to 2500 nM | (−) (peak was <80% rapamycin peak) |  | 8 nM | 36 nM |  |
| COCO[C@@H]1CC[C@@H](C[C@@H](C)[C@@H]2CC(=O)[C@H](C)/C=C(\C)[C@H](O)[C@@H](OC)C(=O)[C@H](C)C[C@H](C)/C=C/C=C/C=C(\C)[C@@H](OC)C[C@@H]3CC[C@@H](C)[C@@](O)(O3)C(=O)C(=O)N3CCCC[C@H]3C(=O)O2)C[C@H]1OC [43-O-MOM-28-epirapamycin] |  |  |  |  |  | IC50 (murine splenocyte; [8]): 0.6 to 1.6 nM; EC50 [1, 9]: 7 nM; IC50 (FKBP; [10]): 27 nM |
| C=CCO[C@@H]1CC[C@@H](C[C@@H](C)[C@@H]2CC(=O)[C@H](C)/C=C(\C)[C@H](O)[C@@H](OC)C(=O)[C@H](C)C[C@H](C)/C=C/C=C/C=C(\C)[C@@H](OC)C[C@@H]3CC[C@@H](C)[C@@](O)(O3)C(=O)C(=O)N3CCCC[C@H]3C(=O)O2)C[C@H]1OC [43-O-allyl-28-epirapamycin] |  |  |  |  |  | IC50 (murine splenocyte; [8]): 641 to 684 nM; EC50 [1, 9]: 8 nM; IC50 (FKBP; [10]): 65 nM |
